The assay concerns the target T1, 5-lipoxygenase (5-LO) (Homo sapiens, UniProt P09917).
T1 sequence (P09917 1-674): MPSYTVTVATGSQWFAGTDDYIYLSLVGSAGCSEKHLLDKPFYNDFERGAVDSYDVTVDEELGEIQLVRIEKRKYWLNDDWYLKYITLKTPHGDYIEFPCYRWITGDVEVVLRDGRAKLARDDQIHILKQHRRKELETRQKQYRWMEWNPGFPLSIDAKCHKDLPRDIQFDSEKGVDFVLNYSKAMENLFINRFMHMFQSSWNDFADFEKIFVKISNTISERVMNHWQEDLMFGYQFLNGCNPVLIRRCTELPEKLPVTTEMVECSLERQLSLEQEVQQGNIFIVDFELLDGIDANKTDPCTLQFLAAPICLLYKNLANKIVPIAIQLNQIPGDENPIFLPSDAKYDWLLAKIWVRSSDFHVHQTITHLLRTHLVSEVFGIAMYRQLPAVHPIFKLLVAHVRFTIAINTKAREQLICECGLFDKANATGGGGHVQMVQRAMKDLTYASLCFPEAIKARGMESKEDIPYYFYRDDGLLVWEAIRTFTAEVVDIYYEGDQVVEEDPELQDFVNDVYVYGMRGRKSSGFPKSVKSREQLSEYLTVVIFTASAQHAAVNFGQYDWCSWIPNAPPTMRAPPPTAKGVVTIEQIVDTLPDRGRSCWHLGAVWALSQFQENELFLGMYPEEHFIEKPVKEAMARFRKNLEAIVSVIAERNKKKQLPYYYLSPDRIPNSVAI
Description: cell-free 5-LO activity assay with arachidonic acid, products by HPLC. It counts as biochemical.

The term IC50 denotes the concentration needed to halve the response being measured. Low readings indicate greater potency in that assay, high ones weaker potency in that assay. `O=C1Nc2ccccc2/C1=C1/Nc2ccccc2/C1=N\O` [I3MO, Indirubin-3′-monoxime] returned an IC50 of 7.8 to 10 µM.

These data come from publication PMC3928003 (Cardiovascular Research, 2013).
